From the supplement of paper PMC10307832

What was measured:
Assay in all cases: relative viability (nuclei count vs DMSO), 5 days (fraction); higher = more cells survive
[1] = test system: NCI-H2405
Outline: (§1)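 For relative viability, nuclei counts in treated wells were divided by those in vehicle wells. Lung cancer cell lines had been pin-tool dosed in 1536-well plates the day after seeding and cultured for 5 days, then fixed and stained in one step (final 0.05% Triton X-100, 1% formaldehyde, 1 ug/ml Hoechst) and imaged at 4×. Doses were one drug alone or a fixed anchor-drug dose plus five library-drug doses (not always all listed) in √10 steps, and values are duplicate-plate medians.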

[2] = test system: LXF-289
Outline: as §1

[3] = test system: NCI-H1650
Outline: as §1

[4] = test system: CAL-12T
Outline: as §1

[5] = test system: SK-LU-1
Outline: as §1

[6] = test system: NCI-H647
Outline: as §1

[7] = test system: NCI-H322M
Outline: as §1

[8] = test system: NCI-H2228
Outline: as §1

[9] = test system: NCI-H1437
Outline: as §1

[10] = test system: NCI-H1944
Outline: as §1

[11] = test system: NCI-H1792
Outline: as §1

[12] = test system: LCLC-103H
Outline: as §1

[13] = test system: BEN
Outline: as §1

[14] = test system: HCC-827
Outline: as §1

[15] = test system: LCLC-97TM1
Outline: as §1

[16] = test system: RERF-LC-KJ
Outline: as §1

[17] = test system: 201T
Outline: as §1

[18] = test system: NCI-H727
Outline: as §1

[19] = test system: NCI-H3122
Outline: as §1

[20] = test system: NCI-H1793
Outline: as §1

[21] = test system: NCI-H2087
Outline: as §1

[22] = test system: NCI-H1395
Outline: as §1

CCN(CC)CCCCNc1ncc2cc(-c3cc(OC)cc(OC)c3)c(NC(=O)NC(C)(C)C)nc2n1 + COc1cccc2cc(-c3nc([C@H]4CC[C@H](C(=O)O)CC4)n4ncnc(N)c34)[nH]c12 [OSI-027] (partner 0.5 µM)
relative viability ([1]; first compound 0.01 µM): 0.647
relative viability ([1]; first compound 0.03162 µM): 0.659
relative viability ([1]; first compound 0.1 µM): 0.585
relative viability ([1]; first compound 0.3162 µM): 0.602
relative viability ([1]; first compound 1 µM): 0.691
relative viability ([2]; first compound 0.01 µM): 0.825
relative viability ([2]; first compound 0.03162 µM): 0.823
relative viability ([2]; first compound 0.1 µM): 0.973
relative viability ([2]; first compound 0.3162 µM): 0.812
relative viability ([2]; first compound 1 µM): 0.715
relative viability ([3]; first compound 0.01 µM): 0.7
relative viability ([3]; first compound 0.03162 µM): 0.702
relative viability ([3]; first compound 0.1 µM): 0.649
relative viability ([3]; first compound 0.3162 µM): 0.624
relative viability ([3]; first compound 1 µM): 0.4
relative viability ([4]; first compound 0.01 µM): 0.623
relative viability ([4]; first compound 0.03162 µM): 0.736
relative viability ([4]; first compound 0.1 µM): 0.789
relative viability ([4]; first compound 0.3162 µM): 0.836
relative viability ([4]; first compound 1 µM): 0.576
relative viability ([5]; first compound 0.01 µM): 0.412
relative viability ([5]; first compound 0.03162 µM): 0.377
relative viability ([5]; first compound 0.1 µM): 0.33
relative viability ([5]; first compound 0.3162 µM): 0.341
relative viability ([5]; first compound 1 µM): 0.219
relative viability ([6]; first compound 0.01 µM): 0.539
relative viability ([6]; first compound 0.03162 µM): 0.8
relative viability ([6]; first compound 0.1 µM): 0.848
relative viability ([6]; first compound 0.3162 µM): 0.861
relative viability ([6]; first compound 1 µM): 0.56
relative viability ([7]; first compound 0.01 µM): 0.481
relative viability ([7]; first compound 0.03162 µM): 0.525
relative viability ([7]; first compound 0.1 µM): 0.531
relative viability ([7]; first compound 0.3162 µM): 0.594
relative viability ([7]; first compound 1 µM): 0.552
relative viability ([8]; first compound 0.01 µM): 0.599
relative viability ([8]; first compound 0.03162 µM): 0.505
relative viability ([8]; first compound 0.1 µM): 0.582
relative viability ([8]; first compound 0.3162 µM): 0.63
relative viability ([8]; first compound 1 µM): 0.363
relative viability ([9]; first compound 0.01 µM): 0.978
relative viability ([9]; first compound 0.03162 µM): 0.876
relative viability ([9]; first compound 0.1 µM): 0.925
relative viability ([9]; first compound 0.3162 µM): 0.874
relative viability ([9]; first compound 1 µM): 0.857
relative viability ([10]; first compound 0.01 µM): 0.417
relative viability ([10]; first compound 0.03162 µM): 0.449
relative viability ([10]; first compound 0.1 µM): 0.437
relative viability ([10]; first compound 0.3162 µM): 0.406
relative viability ([10]; first compound 1 µM): 0.351
relative viability ([11]; first compound 0.01 µM): 0.602
relative viability ([11]; first compound 0.03162 µM): 0.783
relative viability ([11]; first compound 0.1 µM): 0.706
relative viability ([11]; first compound 0.3162 µM): 0.723
relative viability ([11]; first compound 1 µM): 0.523
relative viability ([12]; first compound 0.01 µM): 0.455
relative viability ([12]; first compound 0.03162 µM): 0.482
relative viability ([12]; first compound 0.1 µM): 0.456
relative viability ([12]; first compound 0.3162 µM): 0.386
relative viability ([12]; first compound 1 µM): 0.339
relative viability ([13]; first compound 0.01 µM): 0.242
relative viability ([13]; first compound 0.03162 µM): 0.285
relative viability ([13]; first compound 0.1 µM): 0.347
relative viability ([13]; first compound 0.3162 µM): 0.311
relative viability ([13]; first compound 1 µM): 0.282
relative viability ([14]; first compound 0.01 µM): 0.809
relative viability ([14]; first compound 0.03162 µM): 0.761
relative viability ([14]; first compound 0.1 µM): 0.836
relative viability ([14]; first compound 0.3162 µM): 0.95
relative viability ([14]; first compound 1 µM): 0.655
relative viability ([15]; first compound 0.01 µM): 0.553
relative viability ([15]; first compound 0.03162 µM): 0.518
relative viability ([15]; first compound 0.1 µM): 0.513
relative viability ([15]; first compound 0.3162 µM): 0.619
relative viability ([15]; first compound 1 µM): 0.367
relative viability ([16]; first compound 0.01 µM): 0.549
relative viability ([16]; first compound 0.03162 µM): 0.678
relative viability ([16]; first compound 0.1 µM): 0.536
relative viability ([16]; first compound 0.3162 µM): 0.675
relative viability ([16]; first compound 1 µM): 0.515
relative viability ([17]; first compound 0.01 µM): 0.615
relative viability ([17]; first compound 0.03162 µM): 0.658
relative viability ([17]; first compound 0.1 µM): 0.927
relative viability ([17]; first compound 0.3162 µM): 0.798
relative viability ([17]; first compound 1 µM): 0.607
relative viability ([18]; first compound 0.01 µM): 0.673
relative viability ([18]; first compound 0.03162 µM): 0.591
relative viability ([18]; first compound 0.1 µM): 0.623
relative viability ([18]; first compound 0.3162 µM): 0.842
relative viability ([18]; first compound 1 µM): 0.498
relative viability ([19]; first compound 0.01 µM): 1.06
relative viability ([19]; first compound 0.03162 µM): 1.02
relative viability ([19]; first compound 0.1 µM): 1.15
relative viability ([19]; first compound 0.3162 µM): 1.3
relative viability ([19]; first compound 1 µM): 0.922
relative viability ([20]; first compound 0.01 µM): 0.238
relative viability ([20]; first compound 0.03162 µM): 0.253
relative viability ([20]; first compound 0.1 µM): 0.318
relative viability ([20]; first compound 0.3162 µM): 0.307
relative viability ([20]; first compound 1 µM): 0.206
relative viability ([21]; first compound 0.01 µM): 0.618
relative viability ([21]; first compound 0.03162 µM): 0.5
relative viability ([21]; first compound 0.1 µM): 0.733
relative viability ([21]; first compound 0.3162 µM): 0.636
relative viability ([21]; first compound 1 µM): 0.6
relative viability ([22]; first compound 0.01 µM): 0.578
relative viability ([22]; first compound 0.03162 µM): 0.697
relative viability ([22]; first compound 0.1 µM): 0.745
relative viability ([22]; first compound 0.3162 µM): 0.554
relative viability ([22]; first compound 1 µM): 0.458
